Experimental data published in patent publication US6335333B1, “N-arylsulfonylamino acid omega-amides” (Aventis Pharma Deutschland GmbH, priority 1998, dated 2002).
pIC50: −log10 of the molar value. Converted amounts (≈) assume the structure as drawn. Structures can show the parent of a compound that is named as a salt. Where two headings read alike, the source gives them in different places.

Assays:
[1] = Determination of the solubility in water (HPLC against external standard); type: physicochemical
Protocol: Determination of the solubility in water of the free acid of 2-(4′-chloro-biphenyl-4-sulfonylamino)-5-(5-fluoro-2,3-dihydroindol-1-yl)-5-oxopentanoic acid according to Example 8 and its tromethamine salt according to Example 15
(§1) Approximately 50 mg of test substance according to 1.1a) were initially introduced into a 100 ml Erlenmeyer flask. After addition of 10 ml of water, the mixture was stirred at 25° C. After 2 hours (h) and after 3 h, aliquots were taken and centrifuged. 1 ml each of the supernatant was diluted to 10 ml with mobile phase. The concentration of the active component was determined by means of HPLC against an external standard. Repetition of the experiment.
as §1, with “Approximately 800” for “Approximately 50”, “of the tromethamine salt” for “of test substance”, “to 1.1b)” for “to 1.1a)”, “2 h” for “2 hours (h)”, “to 100” for “to 10”

[2] = target: T1, human stromelysin (MMP-3) (Homo sapiens, UniProt P08254); test: Inhibition of enzymatic activity of catalytic domain of stromelysin (fluorogenic substrate); type: biochemical; conditions: pH 6.5, 15 min preincubation
T1 construct: enzymatic activity of the catalytic domain of human stromelysin; made in house
Protocol: (§2) Preparation and determination of the enzymatic activity of the catalytic domain of human stromelysin and of neutrophil collagenase.
(§3) The two enzymes—stromelysin (MMP-3) and neutrophil collagenase (MMP-8)—were prepared according to Ye et al. (Biochemistry; 31 (1992) pages 11231-11235) or Weithmann et al. (Inflamm Res 46(1997) 246-252). For measurement of the inhibitory action on the enzymatic activity, 70 μl of buffer solution and 10 μl of enzyme solution were incubated for 15 minutes with 10 μl of a 10% strength (v/v) aqueous dimethyl sulfoxide solution which optionally contained the enzyme inhibitor. After addition of 10 μl of a 10% strength (v/v) aqueous dimethyl sulfoxide solution which contained 1 mmol/l of the substrate, the enzyme reaction was monitored by fluorescence spectroscopy (328 nm (ex)/393 nm (em)). The enzyme activity was shown as the extinction increase/minute. The IC50 values listed in Table 2 were determined as those inhibitor concentrations which in each case led to a 50% inhibition of the enzyme. The buffer solution contained 0.05% of Brij (Sigma, Deisenhofen, Germany) and 0.1 mol/l of piperazine-N,N′-bis[2-ethanesulfonic acid]/NaOH, 0.1 mol/l of NaCl, 0.01 mol/l of CaCl2 and 0.1 mol/l of piperazine-N,N′-bis[2-ethanesulfonic acid] (pH=6.5). The enzyme solution contained 5 μg/ml of one of the enzyme domains prepared according to Ye et al. The substrate solution contained 1 mmol/l of the fluorogenic substrate (7-methoxycoumarin-4-yl)acetyl-Pro-Leu-Gly-Leu-3-(2′,4′-dinitrophenyl)-L-2,3-diaminopropionyl-Ala-Arg-NH2 (Bachem, Heidelberg, Germany).

[3] = target: T2, neutrophil collagenase (MMP-8) (Homo sapiens, UniProt P22894); test: Inhibition of enzymatic activity of catalytic domain of neutrophil collagenase (fluorogenic substrate); type: biochemical; conditions: pH 6.5, 15 min preincubation
T2 construct: catalytic domain of human stromelysin and of neutrophil collagenase; made in house
Protocol: as §2, §3

T1 sequence (P08254 100-272 limits assumed): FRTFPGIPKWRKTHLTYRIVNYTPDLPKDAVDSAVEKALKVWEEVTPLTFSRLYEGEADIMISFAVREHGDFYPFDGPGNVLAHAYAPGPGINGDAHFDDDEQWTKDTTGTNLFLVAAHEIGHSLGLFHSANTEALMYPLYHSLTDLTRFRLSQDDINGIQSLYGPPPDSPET
T2 sequence (P22894 100-262 limits assumed): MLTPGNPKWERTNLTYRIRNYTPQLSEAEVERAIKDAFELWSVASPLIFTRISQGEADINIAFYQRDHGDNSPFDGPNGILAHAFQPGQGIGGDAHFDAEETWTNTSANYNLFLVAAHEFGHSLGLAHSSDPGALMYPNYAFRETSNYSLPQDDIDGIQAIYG

Row | pIC50 [2] | pIC50 [3] | Structure (SMILES) | further results
1 |  |  | O=C(O)[C@H](CCC(=O)N1CCc2ccccc21)NS(=O)(=O)c1ccc(-c2ccc(Cl)cc2)cc1 (stereo in doubt) [Example 8, 2-(4′-Chlorobiphenyl-4-sulfonylamino)-5-(2,3-dihydroindol-1-yl)-5-oxopentanoic acid] | solubility at 2 h ([1]; thermodynamic from solid, water, 25° C., stirred 2 h, mean value from two determinations, read-out: Solubility in water at 25° C. after 2 h): 200 µg/mL (≈ 401 µM); solubility at 3 h ([1]; thermodynamic from solid, water, 25° C., stirred 3 h, mean value from two determinations, read-out: Solubility in water at 25° C. After 3 h): 100 µg/mL (≈ 200 µM); Solubility in water at 25° C. Result ([1]; water, 25° C., data value obtained after 3 h is used): 100 µg/mL (≈ 200 µM)
2 | 7.00 | 8.00 | O=C(CC[C@H](NS(=O)(=O)c1ccc(-c2ccccc2)cc1)C(=O)O)Nc1cccc2ccccc12 [Example 1, 2-(biphenyl-4-sulfonylamino)4-(naphthalen-1-ylcarb-amoyl)butyric acid] | 
3 | 6.70 |  | O=C(CC[C@H](NS(=O)(=O)c1ccc(-c2ccccc2)cc1)C(=O)O)Nc1ccc2ccccc2c1 [Example 2, 2-(biphenyl-4-sulfonylamino)-4-(naphthalen-2-yl-carbamoyl)butyric acid] | 
4 | 6.70 |  | O=C(CC[C@H](NS(=O)(=O)c1ccc(-c2ccccc2)cc1)C(=O)O)NCCNc1ccccc1 [Example 3, 2-(biphenyl-4-sulfonylamino)-4-(2-phenylamino-ethylcarbamoyl)butyric acid] | 
5 | 7.00 |  | O=C(CC[C@H](NS(=O)(=O)c1ccc(-c2ccc(Cl)cc2)cc1)C(=O)O)NCCCN1CCOCC1 [Example 4, 2-(4′-chloro-biphenyl-4-sulfonylamino)-4-(3-morpholin-4-ylpropylcarbamoyl)butyric acid] | 
6 | 7.00 | 8.22 | O=C(CC[C@H](NS(=O)(=O)c1ccc(-c2ccccc2)cc1)C(=O)O)NCCCN1CCOCC1 [Example 5, 4-(3-(4-(Biphenyl-4-sulfonylamino)-4-carboxybutyrylamino)-propyl)morpholin-4-ium trifluoroacetate] | 
7 | 6.30 |  | O=C(O)[C@H](CCC(=O)N1CCc2ccccc21)NS(=O)(=O)c1ccc(-c2ccccc2)cc1 [Example 6, 2-(Biphenyl-4-sulfonylamino)-5-(2,3-dihydroindol-1-yl)-5-oxopentanecarboxylic acid] | 
8 | 7.40 | 8.40 | O=C(O)[C@H](CCC(=O)N1CCc2ccccc21)NS(=O)(=O)c1ccc(-c2ccc(N3CCCC3)cc2)cc1 [Example 7, 5-(2,3-dihydroindol-1-yl)-5-oxo-2-(4′-pyrrolidin-1-yl-biphenyl-4-sulfonyl-amino)pentanoic acid] | 
9 | 7.00 | 8.00 | O=C(O)[C@H](CCC(=O)N1CCc2ccccc21)NS(=O)(=O)c1ccc(-c2ccc(Cl)cc2)cc1 [Example 8, 2-(4′-Chlorobiphenyl-4-sulfonylamino)-5-(2,3-dihydroindol-1-yl)-5-oxopentanoic acid] | 
10 | 7.00 |  | O=C(O)[C@H](CCC(=O)N1CCc2ccccc21)NS(=O)(=O)c1ccc(-c2ccc(Br)cc2)cc1 [Example 9, 2-(4′-bromobiphenyl-4-sulfonyl-amino)-5-(2,3-dihydroindol-1-yl)-5-oxopentanoic acid] | 
11 | 7.00 |  | O=C(O)[C@H](CCC(=O)N1CCc2cc(F)ccc21)NS(=O)(=O)c1ccc(-c2ccc(Cl)cc2)cc1 [Example 10, 2-(4′-chloro-biphenyl-4-sulfonylamino)-5-(5-fluoro-2,3-dihydroindol-1-yl)-5-oxopentanoic acid] | 
12 | 7.00 |  | O=C(O)[C@H](CCC(=O)N1CCc2cc(F)ccc21)NS(=O)(=O)c1ccc(-c2ccc(Br)cc2)cc1 [Example 11, 2-(4′-bromobiphenyl-4-sulfonylamino)-5-(5-fluoro-2,3-dihydroindol-1-yl)-5-ox-opentanoic acid] | 
13 | 7.52 | 8.70 | O=C(O)[C@H](CCC(=O)N1CCc2cc(F)ccc21)NS(=O)(=O)c1ccc(-c2ccc(N3CCCC3)cc2)cc1 [Example 12, 5-(5-Fluoro-2,3-dihydroindol-1-yl)-5-oxo-2-(4′-pyrrolidin-1-ylbiphenyl-4-sulfonylamino)pentanoic acid] | 
14 | 7.00 | 8.00 | O=C(O)[C@H](CCC(=O)N1CCc2cc(F)ccc21)NS(=O)(=O)c1ccc(-c2ccc(N3CCOCC3)cc2)cc1 [Example 13, 5-(5-fluoro-2,3-dihydroindol-1-yl)-2-(4′-morpholin-4-yl-biphenyl-4-sulfonylamino)-5-oxopentanoic acid] | 
15 | 7.30 | 8.00 | O=C(O)[C@@H](CCC(=O)N1CCc2ccccc21)NS(=O)(=O)c1ccc(-c2ccc(Cl)cc2)cc1 [Example 14] | 
16 |  |  | NC(CO)(CO)CO.O=C(O)C(CCC(=O)N1CCc2ccccc21)NS(=O)(=O)c1ccc(-c2ccc(Cl)cc2)cc1 (stereo not shown) [Example 15, Tromethamine salt of 2-(4′-chlorobiphenyl-4-sulfonylamino)-5-(2,3-dihydroindol-1-yl)-5-oxopentanoic acid] | Solubility in water at 25° C. After 3 h [1]: 58000 µg/mL; Solubility in water at 25° C. Result [1]: 58000 µg/mL; Solubility in water at 25° C. after 2 h [1]: 58000 µg/mL; Water solubility of tromethamine salt higher than that of the free acid, factor [1]: ~600
